The source of these data is ChEMBL document CHEMBL1125012, “Inhibition of enzymes of estrogen and androgen biosynthesis by esters of 4-pyridylacetic acid” (J Med Chem, 1990).

“And” between values parts separate entries of the source, which are not always exact repeats. Equal entries are not always repeated. Bounds are passed on as bounds.

The target of the assay is T1, Steroid 17-alpha-hydroxylase/17,20 lyase (Rattus norvegicus, UniProt P11715).
T1 sequence (P11715 whole entry): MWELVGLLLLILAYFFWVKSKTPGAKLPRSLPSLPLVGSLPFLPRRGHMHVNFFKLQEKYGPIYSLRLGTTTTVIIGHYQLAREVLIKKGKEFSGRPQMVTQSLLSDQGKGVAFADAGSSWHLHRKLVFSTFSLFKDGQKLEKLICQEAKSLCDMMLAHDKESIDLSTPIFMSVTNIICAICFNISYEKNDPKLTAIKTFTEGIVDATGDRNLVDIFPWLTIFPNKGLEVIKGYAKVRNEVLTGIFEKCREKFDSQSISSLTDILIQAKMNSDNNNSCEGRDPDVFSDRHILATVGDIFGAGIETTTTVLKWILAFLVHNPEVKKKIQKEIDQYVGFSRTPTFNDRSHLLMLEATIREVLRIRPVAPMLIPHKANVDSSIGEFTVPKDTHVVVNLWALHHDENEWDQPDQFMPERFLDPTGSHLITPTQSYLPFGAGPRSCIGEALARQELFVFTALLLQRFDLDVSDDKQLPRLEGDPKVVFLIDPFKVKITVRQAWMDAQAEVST
In the case of `CCC1CCC(OC(=O)Cc2ccncc2)CC1` (stereo unspecified), the IC50 was 2.7 µM and 2 µM.
`CC(C)OC(=O)Cc1ccncc1` registered an IC50 greater than 100 µM.
The figure for `CC(C)(C)C1CCC(OC(=O)Cc2ccncc2)CC1` (stereo unspecified) is 3 µM and 2.1 µM.
Next, `CC(C)(C(=O)OC1CCCCC1)c1ccncc1`: 4.5 µM and 3.6 µM; `O=C(Cc1ccncc1)OC12CC3CC(CC(C3)C1)C2`: 0.61 µM and 0.56 µM.
The figure for `CC(C)CC(C)OC(=O)Cc1ccncc1` (stereo unspecified) is 17 µM and 13 µM; for `CC1CCC(OC(=O)Cc2ccncc2)C1` (stereo unspecified) it is 32 µM and 28 µM; for `CC1(OC(=O)Cc2ccncc2)CCCCC1` it is 11 µM and 10 µM.
For the compound `O=C(Cc1ccncc1)OC1CCCC1`, the IC50 was 131 µM and 77 µM.
Next, `O=C(Cc1ccncc1)Oc1ccccc1`: greater than 100 µM; `CC(C)CCOC(=O)Cc1ccncc1`: greater than 100 µM; `CC1(C)C2CCC1(C)C(OC(=O)Cc1ccncc1)C2` (single isomer, unassigned; (-)): 2.2 µM and 1.5 µM.
With `CC1CCC(OC(=O)Cc2ccncc2)CC1` (stereo in doubt; 6), the IC50 was 36 µM and 25 µM.
The figure for `CC1CCC(C(C)C)C(OC(=O)Cc2ccncc2)C1` (stereo in doubt; 12) is 5.1 µM and 4.5 µM; for `CC1CCC(C(C)C)C(OC(=O)Cc2ccncc2)C1` (stereo in doubt; 13) it is 15 µM and 12 µM; for `O=C(Cc1ccncc1)OC1=CC2CCC1C2` (stereo in doubt; 14) it is 41 µM and 31 µM.
The figure for `O=C(Cc1ccncc1)OC1=CC2CCC1C2` (stereo in doubt; 15) is 46 µM and 45 µM; for `CC1(C)C2CCC1(C)C(OC(=O)Cc1ccncc1)C2` (stereo in doubt; 17) it is 0.54 µM and 0.59 µM.
The figure for `CC1C(OC(=O)Cc2ccncc2)CC2CC1C2(C)C` (stereo in doubt; 18) is 0.28 µM and 0.26 µM; for `CC1C(OC(=O)Cc2ccncc2)CC2CC1C2(C)C` (stereo in doubt; 19) it is 1.8 µM and 1.7 µM; for `CC1CCC(OC(=O)Cc2ccncc2)CC1` (trans isomer) it is 4.4 µM and 4.2 µM.
